Test results reported in US10738028B2, “Spiro three-membered ring, spiro five-membered ring peptide deformylase inhibitor and use thereof in antibacteria and anti-tumor” (priority 2016, dated 2020).

Tests used:
Format in all cases: cell-based
[1] = tested on: HCT-116 colorectal cancer cell line; test: CCK-8 proliferation inhibition; conditions: Homo sapiens, HCT-116, 72 h, concentration of 30 μM; 72 hours; CCK-8; read-out: HCT116 inhibition rate/%
Summary of the method: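 Growth inhibition is read by CCK-8 (1:10 dilution) after 72 h of compound exposure. HCT-116 cells grow in McCoy's 5A containing 10% newborn bovine serum at 2000 cells/well, with 1‰ DMSO as vehicle control.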

[2] = tested on: Enterococcus faecalis (EFA); test: MIC, two-fold agar dilution (CLSI), clinical isolates; conditions: for Anti-bacterial activity (MIC), strain EFA 15-1: clinical isolate EFA 15-1; for Anti-bacterial activity (MIC), strain EFA 15-2: clinical isolate EFA 15-2; for Anti-bacterial activity (MIC), strain EFA 15-3: clinical isolate EFA 15-3; for Anti-bacterial activity (MIC), strain EFA 15-4: clinical isolate EFA 15-4; for Anti-bacterial activity (MIC), strain EFA 15-5: clinical isolate EFA 15-5; for Anti-bacterial activity (MIC), strain EFA 15-6: clinical isolate EFA 15-6; for Anti-bacterial activity (MIC), strain EFA 15-9: clinical isolate EFA 15-9
Excerpt: (§1) 1. The invention adopts the two-fold agar dilution method recommended by the operating procedure of antimicrobial susceptibility testing set by American Clinical and Laboratory Standards Institute (CLSI) to determine the Minimum Inhibitory Concentration (MIC) of the test samples against the tested strains.

[3] = tested on: methicillin-resistant Staphylococcus aureus (MRSA); test: as above; conditions: for Anti-bacterial activity (MIC), strain MRSA 15-1: clinical isolate MRSA 15-1; for Anti-bacterial activity (MIC), strain MRSA 15-2: clinical isolate MRSA 15-2; for Anti-bacterial activity (MIC), strain MRSA 15-3: clinical isolate MRSA 15-3; for Anti-bacterial activity (MIC), strain MRSA 15-4: clinical isolate MRSA 15-4
Excerpt: as §1

[4] = tested on: methicillin-sensitive Staphylococcus epidermidis (MSSE); test: as above; conditions: for Anti-bacterial activity (MIC), strain MSSE 15-3: clinical isolate MSSE 15-3; for Anti-bacterial activity (MIC), strain MSSE 15-4: clinical isolate MSSE 15-4; for Anti-bacterial activity (MIC), strain MSSE 15-5: clinical isolate MSSE 15-5; for Anti-bacterial activity (MIC), strain MSSE 15-6: clinical isolate MSSE 15-6
Excerpt: as §1

[5] = tested on: methicillin-sensitive Staphylococcus aureus (MSSA); test: as above; conditions: for Anti-bacterial activity (MIC), strain MSSA 15-3: clinical isolate MSSA 15-3; for Anti-bacterial activity (MIC), strain MSSA 15-4: clinical isolate MSSA 15-4; for Anti-bacterial activity (MIC), strain MSSA 15-5: clinical isolate MSSA 15-5; for Anti-bacterial activity (MIC), strain MSSA 15-6: clinical isolate MSSA 15-6
Excerpt: as §1

[6] = tested on: Streptococcus pneoumoniae (SPN); test: as above; conditions: for Anti-bacterial activity (MIC), strain SPN 16-2: clinical isolate SPN 16-2; for Anti-bacterial activity (MIC), strain SPN 16-4: clinical isolate SPN 16-4
Excerpt: as §1

[7] = tested on: methicillin-resistant Staphylococcus epidermidis (MRSE); test: as above; conditions: for Anti-bacterial activity (MIC), strain MRSE 15-1: clinical isolate MRSE 15-1; for Anti-bacterial activity (MIC), strain MRSE 15-2: clinical isolate MRSE 15-2; for Anti-bacterial activity (MIC), strain MRSE 15-3: clinical isolate MRSE 15-3; for Anti-bacterial activity (MIC), strain MRSE 15-7: clinical isolate MRSE 15-7
Excerpt: as §1

[8] = tested on: Enterococcus faecium (EFM); test: as above; conditions: for Anti-bacterial activity (MIC), strain EFM 15-1: clinical isolate EFM 15-1; for Anti-bacterial activity (MIC), strain EFM 15-2: clinical isolate EFM 15-2; for Anti-bacterial activity (MIC), strain EFM 15-3: clinical isolate EFM 15-3; for Anti-bacterial activity (MIC), strain EFM 15-4: clinical isolate EFM 15-4; for Anti-bacterial activity (MIC), strain EFM 15-5: clinical isolate EFM 15-5; for Anti-bacterial activity (MIC), strain EFM 15-6: clinical isolate EFM 15-6
Excerpt: as §1

[9] = tested on: Moraxella catarrhalis (BCA); test: as above; conditions: for Anti-bacterial activity (MIC), strain BCA 14-1: clinical isolate BCA 14-1; for Anti-bacterial activity (MIC), strain BCA 14-4: clinical isolate BCA 14-4; for Anti-bacterial activity (MIC), strain BCA 14-5: clinical isolate BCA 14-5; for Anti-bacterial activity (MIC), strain BCA 14-6: clinical isolate BCA 14-6; for Anti-bacterial activity (MIC), strain BCA 14-7: clinical isolate BCA 14-7; for Anti-bacterial activity (MIC), strain BCA 14-8: clinical isolate BCA 14-8; for Anti-bacterial activity (MIC), strain BCA 14-10: clinical isolate BCA 14-10
Excerpt: as §1

[10] = tested on: Escherichia coli (including ESBLs, non-ESBLs); test: as above; conditions: for Anti-bacterial activity (MIC), strain ECO+ 15-1: clinical isolate ECO+ 15-1; for Anti-bacterial activity (MIC), strain ECO+ 15-2: clinical isolate ECO+ 15-2; for Anti-bacterial activity (MIC), strain ECO+ 15-3: clinical isolate ECO+ 15-3; for Anti-bacterial activity (MIC), strain ECO+ 15-4: clinical isolate ECO+ 15-4; for Anti-bacterial activity (MIC), strain ECO− 15-1: clinical isolate ECO− 15-1; for Anti-bacterial activity (MIC), strain ECO− 15-2: clinical isolate ECO− 15-2; for Anti-bacterial activity (MIC), strain ECO− 15-3: clinical isolate ECO− 15-3; for Anti-bacterial activity (MIC), strain ECO− 15-4: clinical isolate ECO− 15-4
Excerpt: as §1

O=CN(O)C[C@@H](CC1CCCC1)C(=O)N1CC2(CC2)C[C@H]1c1nc2ccccc2[nH]1 [Example 42, N—((R)-3-((S)-6-(1H-benzimidazol-2-yl)-5-azaspiro[2.4]heptane-5-yl)-2-(cyclopentylmethyl)-3-propylcarbonyl)-N-hydroxyformamide]
inhibition at 30 µM [1]: 14% | Anti-bacterial activity (MIC), strain EFA 15-1 [2]: 16 µg/mL | Anti-bacterial activity (MIC), strain EFA 15-2 [2]: 16 µg/mL | Anti-bacterial activity (MIC), strain EFA 15-3 [2]: 4 µg/mL | Anti-bacterial activity (MIC), strain EFA 15-4 [2]: 16 µg/mL | Anti-bacterial activity (MIC), strain EFA 15-5 [2]: 16 µg/mL | Anti-bacterial activity (MIC), strain EFA 15-6 [2]: 16 µg/mL | Anti-bacterial activity (MIC), strain EFA 15-9 [2]: 16 µg/mL | Anti-bacterial activity (MIC), strain MRSA 15-1 [3]: 2 µg/mL | Anti-bacterial activity (MIC), strain MRSA 15-2 [3]: 2 µg/mL | Anti-bacterial activity (MIC), strain MRSA 15-3 [3]: 1 µg/mL | Anti-bacterial activity (MIC), strain MRSA 15-4 [3]: 1 µg/mL | Anti-bacterial activity (MIC), strain MSSE 15-3 [4]: 2 µg/mL | Anti-bacterial activity (MIC), strain MSSE 15-4 [4]: 2 µg/mL | Anti-bacterial activity (MIC), strain MSSE 15-5 [4]: 2 µg/mL | Anti-bacterial activity (MIC), strain MSSE 15-6 [4]: 2 µg/mL | Anti-bacterial activity (MIC), strain MSSA 15-3 [5]: 2 µg/mL | Anti-bacterial activity (MIC), strain MSSA 15-4 [5]: 2 µg/mL | Anti-bacterial activity (MIC), strain MSSA 15-5 [5]: 1 µg/mL | Anti-bacterial activity (MIC), strain MSSA 15-6 [5]: 2 µg/mL | Anti-bacterial activity (MIC), strain SPN 16-2 [6]: 1 µg/mL | Anti-bacterial activity (MIC), strain SPN 16-4 [6]: 16 µg/mL | Anti-bacterial activity (MIC), strain MRSE 15-1 [7]: 2 µg/mL | Anti-bacterial activity (MIC), strain MRSE 15-2 [7]: 2 µg/mL | Anti-bacterial activity (MIC), strain MRSE 15-3 [7]: 2 µg/mL | Anti-bacterial activity (MIC), strain MRSE 15-7 [7]: 2 µg/mL | Anti-bacterial activity (MIC), strain EFM 15-1 [8]: 2 µg/mL | Anti-bacterial activity (MIC), strain EFM 15-2 [8]: 4 µg/mL | Anti-bacterial activity (MIC), strain EFM 15-3 [8]: 1 µg/mL | Anti-bacterial activity (MIC), strain EFM 15-4 [8]: 4 µg/mL | Anti-bacterial activity (MIC), strain EFM 15-5 [8]: 2 µg/mL | Anti-bacterial activity (MIC), strain EFM 15-6 [8]: 4 µg/mL | Anti-bacterial activity (MIC), strain BCA 14-1 [9]: 1 µg/mL | Anti-bacterial activity (MIC), strain BCA 14-4 [9]: 2 µg/mL | Anti-bacterial activity (MIC), strain BCA 14-5 [9]: 2 µg/mL | Anti-bacterial activity (MIC), strain BCA 14-6 [9]: 2 µg/mL | Anti-bacterial activity (MIC), strain BCA 14-7 [9]: 1 µg/mL | Anti-bacterial activity (MIC), strain BCA 14-8 [9]: 4 µg/mL | Anti-bacterial activity (MIC), strain BCA 14-10 [9]: 1 µg/mL | Anti-bacterial activity (MIC), strain ECO+ 15-1 [10]: 16 µg/mL | Anti-bacterial activity (MIC), strain ECO+ 15-2 [10]: 32 µg/mL | Anti-bacterial activity (MIC), strain ECO+ 15-3 [10]: 32 µg/mL | Anti-bacterial activity (MIC), strain ECO+ 15-4 [10]: 16 µg/mL | Anti-bacterial activity (MIC), strain ECO− 15-1 [10]: 32 µg/mL | Anti-bacterial activity (MIC), strain ECO− 15-2 [10]: 32 µg/mL | Anti-bacterial activity (MIC), strain ECO− 15-3 [10]: 32 µg/mL | Anti-bacterial activity (MIC), strain ECO− 15-4 [10]: 32 µg/mL

CCCC[C@H](CC(=O)NO)C(=O)N1CC2(CC2)C[C@H]1C(=O)Nc1ccc(N2CCOCC2)cc1 [Example 43, (S)-5-((R)-2-(2-(hydroxyamino)-2-oxoethyl)hexanoyl)-N-(4-morpholinophenyl)-5-spiro[2.4]heptane-6-carboxamide]
inhibition at 30 µM [1]: 6% | Anti-bacterial activity (MIC), strain EFA 15-1 [2]: > 32 µg/mL | Anti-bacterial activity (MIC), strain EFA 15-2 [2]: > 32 µg/mL | Anti-bacterial activity (MIC), strain EFA 15-3 [2]: > 32 µg/mL | Anti-bacterial activity (MIC), strain EFA 15-4 [2]: > 32 µg/mL | Anti-bacterial activity (MIC), strain EFA 15-5 [2]: > 32 µg/mL | Anti-bacterial activity (MIC), strain EFA 15-6 [2]: > 32 µg/mL | Anti-bacterial activity (MIC), strain EFA 15-9 [2]: > 32 µg/mL | Anti-bacterial activity (MIC), strain MRSA 15-1 [3]: 1 µg/mL | Anti-bacterial activity (MIC), strain MRSA 15-2 [3]: 4 µg/mL | Anti-bacterial activity (MIC), strain MRSA 15-3 [3]: 1 µg/mL | Anti-bacterial activity (MIC), strain MRSA 15-4 [3]: 4 µg/mL | Anti-bacterial activity (MIC), strain MSSE 15-3 [4]: 1 µg/mL | Anti-bacterial activity (MIC), strain MSSE 15-4 [4]: 1 µg/mL | Anti-bacterial activity (MIC), strain MSSE 15-5 [4]: 1 µg/mL | Anti-bacterial activity (MIC), strain MSSE 15-6 [4]: 1 µg/mL | Anti-bacterial activity (MIC), strain MSSA 15-3 [5]: 4 µg/mL | Anti-bacterial activity (MIC), strain MSSA 15-4 [5]: 4 µg/mL | Anti-bacterial activity (MIC), strain MSSA 15-5 [5]: 1 µg/mL | Anti-bacterial activity (MIC), strain MSSA 15-6 [5]: 4 µg/mL | Anti-bacterial activity (MIC), strain SPN 16-2 [6]: 1 µg/mL | Anti-bacterial activity (MIC), strain SPN 16-4 [6]: 1 µg/mL | Anti-bacterial activity (MIC), strain MRSE 15-1 [7]: 1 µg/mL | Anti-bacterial activity (MIC), strain MRSE 15-2 [7]: 4 µg/mL | Anti-bacterial activity (MIC), strain MRSE 15-3 [7]: 4 µg/mL | Anti-bacterial activity (MIC), strain MRSE 15-7 [7]: 1 µg/mL | Anti-bacterial activity (MIC), strain EFM 15-1 [8]: > 32 µg/mL | Anti-bacterial activity (MIC), strain EFM 15-2 [8]: > 32 µg/mL | Anti-bacterial activity (MIC), strain EFM 15-3 [8]: > 32 µg/mL | Anti-bacterial activity (MIC), strain EFM 15-4 [8]: > 32 µg/mL | Anti-bacterial activity (MIC), strain EFM 15-5 [8]: 1 µg/mL | Anti-bacterial activity (MIC), strain EFM 15-6 [8]: 2 µg/mL | Anti-bacterial activity (MIC), strain BCA 14-1 [9]: 2 µg/mL | Anti-bacterial activity (MIC), strain BCA 14-4 [9]: 2 µg/mL | Anti-bacterial activity (MIC), strain BCA 14-5 [9]: 1 µg/mL | Anti-bacterial activity (MIC), strain BCA 14-6 [9]: 1 µg/mL | Anti-bacterial activity (MIC), strain BCA 14-7 [9]: 2 µg/mL | Anti-bacterial activity (MIC), strain BCA 14-8 [9]: 2 µg/mL | Anti-bacterial activity (MIC), strain BCA 14-10 [9]: 2 µg/mL | Anti-bacterial activity (MIC), strain ECO+ 15-1 [10]: 1 µg/mL | Anti-bacterial activity (MIC), strain ECO+ 15-2 [10]: > 32 µg/mL | Anti-bacterial activity (MIC), strain ECO+ 15-3 [10]: > 32 µg/mL | Anti-bacterial activity (MIC), strain ECO+ 15-4 [10]: 1 µg/mL | Anti-bacterial activity (MIC), strain ECO− 15-1 [10]: > 32 µg/mL | Anti-bacterial activity (MIC), strain ECO− 15-2 [10]: > 32 µg/mL | Anti-bacterial activity (MIC), strain ECO− 15-3 [10]: > 32 µg/mL | Anti-bacterial activity (MIC), strain ECO− 15-4 [10]: > 32 µg/mL
